Reference: patent US12569502B2, “Use of bile acids and derivatives thereof in preparation of GPR39 agonist” (PEKING UNIVERSITY, priority 2019, dated 2026)
pEC50: −log10 of the molar value.

Assays:
[1] = target: T1, Neuromedin-U receptor 1 (NMUR1, NP_006047.3) (Homo sapiens, UniProt Q9HB89); test: Confocal calcium imaging of Ghrelin receptor family, overexpressed in HEK293T cells; assay type: cell-based; settings: 200 μM
T1 construct: mCherry; host or cells: HEK293T, transient
T1 sequence (Q9HB89 1-426): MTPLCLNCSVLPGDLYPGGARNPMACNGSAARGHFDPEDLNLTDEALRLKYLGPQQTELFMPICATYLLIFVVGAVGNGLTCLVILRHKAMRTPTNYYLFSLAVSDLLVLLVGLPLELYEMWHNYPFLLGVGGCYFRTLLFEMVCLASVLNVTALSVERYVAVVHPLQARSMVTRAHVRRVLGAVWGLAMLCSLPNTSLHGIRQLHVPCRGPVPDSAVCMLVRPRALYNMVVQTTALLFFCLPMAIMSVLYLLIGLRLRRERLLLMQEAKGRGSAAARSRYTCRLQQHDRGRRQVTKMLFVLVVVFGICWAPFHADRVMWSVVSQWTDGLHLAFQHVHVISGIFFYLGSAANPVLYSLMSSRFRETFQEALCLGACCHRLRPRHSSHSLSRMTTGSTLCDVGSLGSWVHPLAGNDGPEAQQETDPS
Procedure: (§1) According to the transient transfection method of Example 5.2, the 6 receptors of Ghrelin family except GPR39 were overexpressed in HEK293T cells respectively (the expression vectors for these 6 receptors came from the research group of Rao Yi, Peking University), and calcium dye was incubated. An inverted laser confocal microscope (leica Co.) was used to detect the activation of the 6 receptors of Ghrelin family by LCAS. The specific operations were as below: placing the cells to be detected on the microscope stage, detecting the fluorescence signal value of the calcium dye Fluo8 with the 488 nm channel, and detecting the fluorescence signal value of mCherry with the 543 nm channel. All receptors fused to express the red fluorescence protein mCherry, and the expression of receptors was determined by detecting the red fluorescence emitted from mCherry.

[2] = target: T2, Neurotensin receptor 2 (NTSR2, NP_036476.2) (Homo sapiens, UniProt O95665); test: as above; assay type: cell-based; settings: 200 μM
T2 construct: mCherry; host or cells: HEK293T, transient
Procedure: as §1

[3] = target: T3, Neuromedin-U receptor 2 (NMUR2, NP_064552.3) (Homo sapiens, UniProt Q9GZQ4); test: as above; assay type: cell-based; settings: 200 μM
T3 construct: mCherry; host or cells: HEK293T, transient
Procedure: as §1

[4] = target: T4, Ghrelin receptor (GHSR, NP_940799.1) (Homo sapiens, UniProt Q92847); test: as above; assay type: cell-based; settings: 200 μM
T4 construct: mCherry; host or cells: HEK293T, transient
Procedure: as §1

GPR39 = target: T5, GPR39 (Homo sapiens, UniProt O43194); settings: cell line that transiently or stably expresses GPR39; read-out: cAMP elevation EC50; cited from earlier work
T5 sequence (O43194 1-453): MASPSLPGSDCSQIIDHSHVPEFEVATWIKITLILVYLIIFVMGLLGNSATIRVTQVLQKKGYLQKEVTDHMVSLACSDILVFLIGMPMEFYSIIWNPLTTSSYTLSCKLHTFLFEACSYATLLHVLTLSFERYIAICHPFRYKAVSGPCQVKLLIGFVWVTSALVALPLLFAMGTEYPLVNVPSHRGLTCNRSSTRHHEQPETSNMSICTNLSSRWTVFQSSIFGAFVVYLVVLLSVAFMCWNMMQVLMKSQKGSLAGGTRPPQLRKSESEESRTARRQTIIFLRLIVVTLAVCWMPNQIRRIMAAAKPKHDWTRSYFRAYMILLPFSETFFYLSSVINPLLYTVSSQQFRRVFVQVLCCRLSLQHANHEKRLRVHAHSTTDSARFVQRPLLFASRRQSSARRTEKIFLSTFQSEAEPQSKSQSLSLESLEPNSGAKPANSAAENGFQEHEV

T4 sequence (Q92847 whole entry): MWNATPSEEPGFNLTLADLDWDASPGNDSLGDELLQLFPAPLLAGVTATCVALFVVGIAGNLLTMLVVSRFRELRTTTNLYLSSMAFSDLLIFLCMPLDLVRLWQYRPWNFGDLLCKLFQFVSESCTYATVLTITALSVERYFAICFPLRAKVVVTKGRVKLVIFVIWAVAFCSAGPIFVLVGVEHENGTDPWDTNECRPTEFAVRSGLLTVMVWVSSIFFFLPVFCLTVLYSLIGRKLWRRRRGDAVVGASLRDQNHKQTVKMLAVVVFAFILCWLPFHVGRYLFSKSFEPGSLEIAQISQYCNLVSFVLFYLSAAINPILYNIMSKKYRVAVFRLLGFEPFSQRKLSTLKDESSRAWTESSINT
T3 sequence (Q9GZQ4 whole entry): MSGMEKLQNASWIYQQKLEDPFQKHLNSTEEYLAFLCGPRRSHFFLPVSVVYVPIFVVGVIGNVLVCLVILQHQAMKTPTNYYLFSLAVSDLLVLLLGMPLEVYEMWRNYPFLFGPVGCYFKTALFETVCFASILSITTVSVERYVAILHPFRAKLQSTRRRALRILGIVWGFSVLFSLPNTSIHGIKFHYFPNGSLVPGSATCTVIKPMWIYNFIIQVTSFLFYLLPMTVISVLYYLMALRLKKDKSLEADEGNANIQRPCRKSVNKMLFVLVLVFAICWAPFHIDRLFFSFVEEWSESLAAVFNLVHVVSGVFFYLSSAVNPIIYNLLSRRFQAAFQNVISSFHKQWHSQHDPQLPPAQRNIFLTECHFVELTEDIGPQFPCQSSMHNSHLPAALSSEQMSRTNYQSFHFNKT
T2 sequence (O95665 whole entry): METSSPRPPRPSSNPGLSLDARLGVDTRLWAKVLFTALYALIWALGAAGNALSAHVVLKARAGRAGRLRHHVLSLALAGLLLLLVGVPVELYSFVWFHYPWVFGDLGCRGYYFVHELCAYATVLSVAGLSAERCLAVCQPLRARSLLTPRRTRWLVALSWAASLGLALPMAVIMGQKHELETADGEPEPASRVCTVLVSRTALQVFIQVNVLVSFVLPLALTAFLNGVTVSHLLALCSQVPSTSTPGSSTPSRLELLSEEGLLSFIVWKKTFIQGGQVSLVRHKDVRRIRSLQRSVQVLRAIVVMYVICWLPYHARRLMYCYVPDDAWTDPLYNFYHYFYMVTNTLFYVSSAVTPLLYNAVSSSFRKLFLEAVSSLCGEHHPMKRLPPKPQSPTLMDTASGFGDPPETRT

Structure (SMILES) | activation of NMUR1 (calcium imaging) [1] | activation of NTSR2 (calcium imaging) [2] | activation of NMUR2 (calcium imaging) [3] | activation of GHSR (calcium imaging) [4] | pEC50 (GPR39)
C[C@H](CCC(=O)O)[C@H]1CC[C@H]2[C@@H]3CC[C@@H]4C[C@H](OS(=O)(=O)O)CC[C@]4(C)[C@H]3CC[C@]12C [LCAS] | cannot be activated | cannot be activated | cannot be activated | cannot be activated | 
[Zn+2] [Zinc ions, reference compound] |  |  |  |  | 5.13
